{"source": "patent US7049437B2", "about": "“Synthetic process and crystal form of condensed imidazopyridine derivatives” (Shionogi & Co., Ltd., priority 2000, dated 2006)", "key": {"[1]": {"assay": "Stability to light (fluorescent lamp exposure; appearance and HPLC remaining rate)", "type": "physicochemical", "details": "for appearance / remaining rate (%) / appearance change under light exposure: phosphate monohydrate; for remaining rate (%): HPLC content vs reference kept at −20° C.; for appearance change under light exposure: summary of Table 2", "protocol": "In the following Experiments, contents of Compound (I) were determined by HPLC under the following conditions. • Device: WATERS 510, 481, 712 WISP, 741, FD20A or WATERS 510, 486, 712 WISP, 741, FD20A • Column: YMC-packed column AM-302 S-5 120A ODS (4.6 mm φ×150 mm) • Column temperature: room temperature • Mobile phase: methanol/water/TFA=200/800/1 (v/v) • Flow rate: 1.0 ml/min • Wave length: 230 nm • Concentration: 5–85 μg/ml • Injection Volume: 15 μl\nAfter samples were prepared in the same manner of Experiment 1 and sealed, they were kept under 1800 Lux exposure (16 hours exposure per day of a fluorescent lamp, 28800 Lux*hr/day) or under 10000 Lux exposure (continuous exposure of a fluorescent lamp, 240000 Lux*hr/day, average temperature 30±3° C.). As a standard reference sample, each of crystals was put in a sealed container and kept at −20° C. The content of crystals were determined by the absolute calibration curve method using HPLC under the above conditions."}, "[2]": {"assay": "Stability to heat (crystals kept sealed at 40° C., relative humidity 75%)", "type": "physicochemical", "details": "relative humidity of 75%, 6 months, sealed glass container, phosphate monohydrate", "protocol": "Prism crystals and needle crystals of Compound (Ia) were used for samples. About 25 mg of each crystal was put in a small glass container with polyethylene cap. Containers were capped, sealed with PARAFILM and kept at 40° C., relative humidity of 75% for 6 months."}}, "note": "Structures can show the parent of a compound that is named as a salt.", "data": [{"compound": "c1cc(-c2nc3c4c(ncc3[nH]2)CCOC4)no1", "note": "(as salt: phosphate) (hydrate or solvate) [Needle crystals, 2-(3-isoxazolyl)-3,6,7,9-tetrahydroimidazo[4,5-d]pyrano[4,3-b]pyridine phosphate monohydrate]", "values": [{"measurement": "melting point", "result": "234 to 236", "unit": "°C"}]}, {"compound": "c1cc(-c2nc3c4c(ncc3[nH]2)CCOC4)no1", "note": "(hydrate or solvate) [Example 1, 2-(3-isoxazolyl)-3,6,7,9-tetrahydroimidazo[4,5-d]pyrano[4,3-b]pyridine]", "values": [{"measurement": "melting point", "result": "> 300", "unit": "°C"}]}, {"compound": "c1cc(-c2nc3c4c(ncc3[nH]2)CCOC4)no1", "note": "[Needle crystals, 2-(3-isoxazolyl)-3,6,7,9-tetrahydroimidazo[4,5-d]pyrano[4,3-b]pyridine phosphate monohydrate]", "values": [{"measurement": "appearance", "setting": "[1]; 1800 Lux (16 hours exposure per day), 1 month", "result": "± or +"}, {"measurement": "remaining rate (%)", "setting": "[1]; 1800 Lux, 1 month", "result": 98.6, "unit": "%"}, {"measurement": "remaining rate (%)", "setting": "[1]; 1800 Lux, 2 months", "result": 98.3, "unit": "%"}, {"measurement": "remaining rate (%)", "setting": "[1]; 1800 Lux, 3 months", "result": 96.9, "unit": "%"}, {"measurement": "remaining rate (%)", "setting": "[1]; 1800 Lux, 4 months", "result": 97.0, "unit": "%"}, {"measurement": "appearance", "setting": "[1]; 10000 Lux (continuous exposure, 30±3° C.), 1 week", "result": "± or +"}, {"measurement": "appearance", "setting": "[1]; 10000 Lux (continuous exposure, 30±3° C.), 3 weeks", "result": "+ or ++"}, {"measurement": "remaining rate (%)", "setting": "[1]; 10000 Lux, 1 week", "result": 99.3, "unit": "%"}, {"measurement": "remaining rate (%)", "setting": "[1]; 10000 Lux, 2 weeks", "result": 98.0, "unit": "%"}, {"measurement": "remaining rate (%)", "setting": "[1]; 10000 Lux, 3 weeks", "result": 97.4, "unit": "%"}, {"measurement": "remaining rate under light exposure", "setting": "[1]; after 3 months", "result": "decreased"}, {"measurement": "appearance change under light exposure", "setting": "[1]", "result": "changed the color to yellow"}, {"measurement": "appearance transition", "setting": "[2]", "result": "changed its color to pale yellow"}]}, {"compound": "c1cc(-c2nc3c4c(ncc3[nH]2)CCOC4)no1", "note": "[Prism crystals, 2-(3-isoxazolyl)-3,6,7,9-tetrahydroimidazo[4,5-d]pyrano[4,3-b]pyridine phosphate monohydrate]", "values": [{"measurement": "appearance", "setting": "[1]; 1800 Lux (16 hours exposure per day), 3 months", "result": "− or ±"}, {"measurement": "remaining rate (%)", "setting": "[1]; 1800 Lux, 1 month", "result": 100.0, "unit": "%"}, {"measurement": "remaining rate (%)", "setting": "[1]; 1800 Lux, 2 months", "result": 99.9, "unit": "%"}, {"measurement": "remaining rate (%)", "setting": "[1]; 1800 Lux, 3 months", "result": 100.1, "unit": "%"}, {"measurement": "remaining rate (%)", "setting": "[1]; 1800 Lux, 4 months", "result": 100.1, "unit": "%"}, {"measurement": "appearance", "setting": "[1]; 10000 Lux (continuous exposure, 30±3° C.), 2 weeks", "result": "± or +"}, {"measurement": "remaining rate (%)", "setting": "[1]; 10000 Lux, 1 week", "result": 99.5, "unit": "%"}, {"measurement": "remaining rate (%)", "setting": "[1]; 10000 Lux, 2 weeks", "result": 99.7, "unit": "%"}, {"measurement": "remaining rate (%)", "setting": "[1]; 10000 Lux, 3 weeks", "result": 99.2, "unit": "%"}, {"measurement": "appearance change under light exposure", "setting": "[1]", "result": "scarcely changed appearance"}, {"measurement": "appearance transition", "setting": "[2]", "result": "not observed appearance transition"}]}]}
